Molecules are shown by their SMILES.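 Exposure lasted 48 hours, with cells grown in 96-well plates and compounds tested at five concentrations. GI50 is the concentration that inhibits growth by half. TGI marks complete inhibition of growth.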 Where only a bound is given, the exact number is not on record here.

Some test systems named below: ACHN renal; DU-145 prostate; KM12 colon; LOX IMVI melanoma; MOLT-4 leukemia; SNB-19 CNS; TK-10 renal; UACC-257 melanoma; UACC-62 melanoma; SR leukemia.
What all share (experiment): NCI anticancer screen, dose series, 48 h

On to `Nc1ncnc2c1ncn2Cc1ccc(C23CC4CC(CC(C4)C2)C3)c(OCc2cc(F)c(F)cc2F)c1`, for which the GI50 with ACHN renal is 5.74 µM; in the test with DU-145 prostate, 15.3 µM; with KM12 colon it was 3.92 µM; with LOX IMVI melanoma it was 5.36 µM; with MOLT-4 leukemia, 2.69 µM; in the test with SNB-19 CNS, 29.5 µM. For the same compound, the GI50 with TK-10 renal was 4.37 µM; in the test on UACC-257 melanoma, 2.33 µM; in the test on UACC-62 melanoma it was 4.75 µM. Moreover, the TGI with ACHN renal was greater than 100 µM; in the test on DU-145 prostate, greater than 100 µM; with KM12 colon, greater than 100 µM; in the test with LOX IMVI melanoma, greater than 100 µM; in the test with MOLT-4 leukemia it was 7.97 µM; with SNB-19 CNS it was greater than 100 µM. For the same compound, the values for the TGI in the test with TK-10 renal, in the test on UACC-257 melanoma and in the test with UACC-62 melanoma were greater than 100 µM, 7.4 µM and greater than 100 µM, respectively.

With `Nc1nc2sc3ccccc3c(=O)n2n1`, the TGI in the test with ACHN renal, with KM12 colon, in the test with LOX IMVI melanoma, in the test with MOLT-4 leukemia, with SNB-19 CNS and in the test with SR leukemia was greater than 100 µM each time. Also, the TGI in the test with TK-10 renal, in the test with UACC-257 melanoma and with UACC-62 melanoma was greater than 100 µM in each case.

Consider `O=C1CC(c2cccc(O)c2)C2(C(=O)NC(=S)NC2=O)C(c2cccc(O)c2)C1` (stereo not given), for which the GI50 in the test on ACHN renal, in the test with DU-145 prostate, in the test with KM12 colon, in the test with LOX IMVI melanoma, with MOLT-4 leukemia and in the test with SNB-19 CNS was greater than 100 µM throughout. The GI50 in the test on TK-10 renal, in the test with UACC-257 melanoma and in the test with UACC-62 melanoma was greater than 100 µM in each case. For the same compound, the TGI with ACHN renal, with DU-145 prostate, in the test with KM12 colon, in the test on LOX IMVI melanoma, in the test with MOLT-4 leukemia and in the test on SNB-19 CNS was greater than 100 µM each time. Moreover, the TGI in the test with TK-10 renal, in the test with UACC-257 melanoma and in the test on UACC-62 melanoma was greater than 100 µM throughout.

With `CCN(CC)CCCn1cnc2ncccc2c1=O`, the TGI with ACHN renal, with KM12 colon, with LOX IMVI melanoma, with SNB-19 CNS, in the test with SR leukemia and in the test on TK-10 renal was greater than 100 µM throughout. Further, the TGI in the test with UACC-62 melanoma was greater than 100 µM.

Regarding `CC(=O)N1c2ccccc2C2=CC3C4C(=O)N(c5ccccc5)C(=O)C4C21C1C(=O)N(c2ccccc2)C(=O)C31` (stereo not given), the TGI in the test on ACHN renal, in the test on KM12 colon, in the test on LOX IMVI melanoma, with MOLT-4 leukemia, in the test on SNB-19 CNS and with SR leukemia was greater than 100 µM throughout. Further, the TGI in the test on TK-10 renal, in the test with UACC-257 melanoma and with UACC-62 melanoma was greater than 100 µM throughout.

For the compound `CCOc1ccccc1NC(=O)c1cc2ccccc2cc1O`, the GI50 with ACHN renal was 2.96 µM; in the test on DU-145 prostate it was 3.71 µM; in the test on KM12 colon, 2.59 µM; in the test with LOX IMVI melanoma it was 3.28 µM; in the test with MOLT-4 leukemia it was 2.72 µM; with SNB-19 CNS, 4.28 µM. In addition, the GI50 was 4.08 µM with TK-10 renal, 2.23 µM with UACC-257 melanoma and 2.18 µM in the test with UACC-62 melanoma. In addition, the TGI worked out at 10.3 µM in the test on ACHN renal; 14.5 µM in the test on DU-145 prostate; 7.15 µM with KM12 colon; 11.2 µM with LOX IMVI melanoma; 7.17 µM in the test with MOLT-4 leukemia; 25.1 µM with SNB-19 CNS. Moreover, the TGI amounted to 10.3 µM with TK-10 renal, 5.98 µM in the test on UACC-257 melanoma and 9.55 µM in the test on UACC-62 melanoma.

Regarding `Cc1noc2cccc(OCc3ccccc3)c12`, the TGI in the test with ACHN renal, with KM12 colon, in the test with LOX IMVI melanoma, in the test with MOLT-4 leukemia, with SNB-19 CNS and with SR leukemia was greater than 100 µM throughout. For the same compound, the TGI with TK-10 renal, in the test on UACC-257 melanoma and in the test with UACC-62 melanoma was greater than 100 µM in each case.

In the case of `COc1ccc2c(c1)C(=O)N1CCOC1C2C(=O)O` (stereo not given), the TGI in the test with ACHN renal, in the test with KM12 colon, in the test with LOX IMVI melanoma, in the test with MOLT-4 leukemia, in the test with SNB-19 CNS and with SR leukemia was greater than 100 µM in each case. In addition, the TGI with TK-10 renal, in the test on UACC-257 melanoma and in the test with UACC-62 melanoma was greater than 100 µM throughout.

On to `COc1cc2c3c(n(CCCN(CCN)CCCn4c5c(c6cc(OC)c(OC)cc6c4=O)C(=O)c4cc6c(cc4-5)OCO6)c(=O)c2cc1OC)-c1cc2c(cc1C3=O)OCO2`, for which the GI50 in the test on ACHN renal is 0.376 µM; in the test with DU-145 prostate, 0.663 µM; with KM12 colon, 4.04 µM; in the test on LOX IMVI melanoma it was 0.57 µM; in the test on MOLT-4 leukemia, 0.0846 µM; in the test with SNB-19 CNS, 0.741 µM. The values for the GI50 in the test with TK-10 renal, in the test with UACC-257 melanoma and with UACC-62 melanoma were 3.11 µM, 11.6 µM and 0.24 µM, respectively. Besides, the TGI with ACHN renal was 3.02 µM; in the test on DU-145 prostate, greater than 100 µM; in the test with KM12 colon it was greater than 37 µM; in the test on LOX IMVI melanoma it was 6.32 µM; with SNB-19 CNS it was greater than 100 µM; with TK-10 renal it was greater than 24.8 µM. The TGI in the test on UACC-257 melanoma was greater than 89.1 µM; with UACC-62 melanoma, 0.858 µM.

For `O=C(O)C1=CCCc2ccc3ccccc3c21`, the TGI with ACHN renal, in the test on KM12 colon, in the test with LOX IMVI melanoma, in the test on MOLT-4 leukemia, with SNB-19 CNS and with TK-10 renal was greater than 100 µM each time. Further, the TGI with UACC-257 melanoma and in the test on UACC-62 melanoma was greater than 100 µM in each case.

Take `[Cl][Sn]([Cl])([c]1ccccc1)[c]1ccccc1`: the GI50 in the test on ACHN renal was 14.4 µM; with KM12 colon, 19.6 µM; in the test on LOX IMVI melanoma, 4.51 µM; in the test with MOLT-4 leukemia it was 5.25 µM; in the test with SNB-19 CNS, 14.6 µM; in the test with SR leukemia, 3.93 µM. The figures for the GI50 with TK-10 renal, in the test on UACC-257 melanoma and in the test with UACC-62 melanoma were 15.7 µM, 13.6 µM and 2.87 µM, respectively. Moreover, the TGI is 27.5 µM in the test with ACHN renal; 39.1 µM in the test with KM12 colon; 17.1 µM in the test on LOX IMVI melanoma; 36.9 µM in the test on MOLT-4 leukemia; 27.7 µM in the test with SNB-19 CNS; 25.7 µM in the test with SR leukemia. In addition, the TGI in the test with TK-10 renal came out at 29.7 µM; with UACC-257 melanoma, 27 µM; in the test on UACC-62 melanoma, 9.08 µM.

The record behind these values is PubChem BioAssay (NCI).
